Laboratory results taken from patent US20250313574A1, “SIALIC ACID DERIVATIVES AND METHODS OF USING SAME” (EISAI R&D MANAGEMENT CO., LTD., priority 2022, published 2025).

Assays:
[1] = target: Recombinant Human Siglec-3/CD33 protein (His-CD33) (Homo sapiens (Human), UniProt P20138); test: Differential scanning fluorimetry (DSF) thermal shift assay; assay type: binding; conditions: difference in thermal melt of CD33 protein (0.5 μM) with 50 μM compound
[2] = target: Recombinant human CD33 protein (Homo sapiens (Human), UniProt P20138); test: CD33 competitive binding assay for HTS drug screen (fluorescent multivalent sialic acid probe)
Sequence of Recombinant human CD33 protein (P20138 18-259): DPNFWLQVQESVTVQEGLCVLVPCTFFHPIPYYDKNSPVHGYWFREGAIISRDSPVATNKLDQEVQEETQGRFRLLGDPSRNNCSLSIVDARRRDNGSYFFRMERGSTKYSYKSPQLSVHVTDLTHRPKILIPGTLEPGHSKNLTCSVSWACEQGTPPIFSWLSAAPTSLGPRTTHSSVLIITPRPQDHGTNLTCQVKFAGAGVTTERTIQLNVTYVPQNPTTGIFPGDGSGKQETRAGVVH
In short: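 Inhibition was read as reduced retention of a fluorescent multivalent sialic acid complex (final 5 μM neutravidin, 15 μM A-375, 5 μM biotin-4-FITC) on plate-immobilized human CD33. Compound was added first, the probe followed for 30 min at room temperature in PBS with 0.2% Tween-20 and 0.5% BSA, and FITC was measured after a wash.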

Sequence of Recombinant Human Siglec-3/CD33 protein (His-CD33) (P20138 18-259): as above

| DSF (dTmD) [1] [°C] | EC50 [2] [µM] | SMILES |
| --- | --- | --- |
| 4.9 | 1.5 | CC(=O)N[C@H]1[C@H]([C@H](O)[C@H](O)CNC(=O)c2cc(C)c(O)c(C)c2)O[C@@](CC2OC(C)(C)O[C@H]2c2cccc(NC(=O)CC(C)(C)C)c2)(C(=O)O)C[C@@H]1O (stereo partly drawn) [A-303] |
| 3.9 | 4.7 | CC(=O)N[C@H]1[C@H]([C@H](O)[C@H](O)CNC(=O)c2cc(C)c(O)c(C)c2)O[C@@](CC(O)[C@@H](O)c2cccc(NC(=O)CC(C)(C)C)c2)(C(=O)O)C[C@@H]1O (stereo partly drawn) [A-304] |
| 5.4 | 0.792 | CC(=O)N[C@H]1[C@H]([C@H](O)[C@H](O)CNC(=O)c2cc(C)c(O)c(C)c2)O[C@@](CC2OC(C)(C)O[C@H]2c2cccc(NC(=O)C(=O)[C@H](C)c3cc(C4CC4)no3)c2)(C(=O)O)C[C@@H]1O (stereo partly drawn) [A-305] |
| 0.0 | 103 | CC(=O)N[C@H]1[C@H]([C@H](O)[C@H](O)CNC(=O)c2cc(C)c(O)c(C)c2)O[C@@](CC2COC(C)(C)O2)(C(=O)O)C[C@@H]1O (stereo partly drawn) [A-307] |
| 5.2 | 0.54 | CC(=O)N[C@H]1[C@H]([C@H](O)[C@H](O)CNC(=O)c2cc(C)c(O)c(C)c2)O[C@@](CC2OC(C)(C)O[C@H]2c2cccc(N3CCCC3=O)c2)(C(=O)O)C[C@@H]1O (stereo partly drawn) [A-309] |
| 3.5 | 3.24 | CC(=O)N[C@H]1[C@H]([C@H](O)[C@H](O)CNC(=O)c2cc(C)c(O)c(C)c2)O[C@@](CC2OC(C)(C)O[C@H]2c2ccccc2CNC(=O)OC(C)(C)C)(C(=O)O)C[C@@H]1O (stereo partly drawn) [A-310] |
| 0.5 | 6.36 | CC(=O)N[C@H]1[C@H]([C@H](O)[C@H](O)CNC(=O)c2cc(C)c(O)c(C)c2)O[C@@](CC2OC(C)(C)O[C@H]2c2cccc(C(=O)NCc3ccccc3)c2)(C(=O)O)C[C@@H]1O (stereo partly drawn) [A-311] |
| 4.5 | 0.159 | CC(=O)N[C@H]1[C@H]([C@H](O)[C@H](O)CNC(=O)c2cc(C)c(O)c(C)c2)O[C@@](CC2OC(C)(C)O[C@@H]2c2cccc(C(=O)NCc3ccccc3)c2)(C(=O)O)C[C@@H]1O (stereo partly drawn) [A-312] |
| 0.0 | 11.9 | CC(=O)N[C@H]1[C@H]([C@H](O)[C@H](O)CNC(=O)c2cc(C)c(O)c(C)c2)O[C@@](CC2OC(C)(C)O[C@H]2c2cccc(CN3CCOCC3)c2)(C(=O)O)C[C@@H]1O (stereo partly drawn) [A-313] |
| 0.1 | 7.85 | CC(=O)N[C@H]1[C@H]([C@H](O)[C@H](O)CNC(=O)c2cc(C)c(O)c(C)c2)O[C@@](CC2OC(C)(C)O[C@H]2c2cccc3c2CN(C(=O)OC(C)(C)C)C3)(C(=O)O)C[C@@H]1O (stereo partly drawn) [A-314] |
| 4.2 | 1.14 | CC(=O)N[C@H]1[C@H]([C@H](O)[C@H](O)CNC(=O)c2cc(C)c(O)c(C)c2)O[C@@](CC2OC(C)(C)O[C@H]2c2cccc(CC(=O)OC(C)(C)C)c2)(C(=O)O)C[C@@H]1O (stereo partly drawn) [A-315] |
| 3.8 | 4.86 | CC(=O)N[C@H]1[C@H]([C@H](O)[C@H](O)CNC(=O)c2cc(C)c(O)c(C)c2)O[C@@](CC2OC(C)(C)O[C@H]2c2cccc(N3CCCCC3=O)c2)(C(=O)O)C[C@@H]1O (stereo partly drawn) [A-316] |
| 6.5 | 0.92 | CC(=O)N[C@H]1[C@H]([C@H](O)[C@H](O)CNC(=O)c2cc(C)c(O)c(C)c2)O[C@@](CC2OC(C)(C)O[C@H]2c2ccc(F)c(N3CCCC3=O)c2)(C(=O)O)C[C@@H]1O (stereo partly drawn) [A-317] |
| 7.4 | 0.13 | CC(=O)N[C@H]1[C@H]([C@H](O)[C@H](O)CNC(=O)c2cc(C)c(O)c(C)c2)O[C@@](CC2OC(C)(C)O[C@H]2c2cc(N3CCCC3=O)ccc2C)(C(=O)O)C[C@@H]1O (stereo partly drawn) [A-318] |
| 2.8 | 4.22 | CC(=O)N[C@H]1[C@H]([C@H](O)[C@H](O)CNC(=O)c2cc(C)c(O)c(C)c2)O[C@@](CC2OC(C)(C)O[C@H]2c2ccc(C)c(N3CCCC3=O)c2)(C(=O)O)C[C@@H]1O (stereo partly drawn) [A-319] |
| 4.8 | 0.96 | CC(=O)N[C@H]1[C@H]([C@H](O)[C@H](O)CNC(=O)c2cc(C)c(O)c(C)c2)O[C@@](CC2OC(C)(C)O[C@@H]2c2ccc(C)c(N3CCCC3=O)c2)(C(=O)O)C[C@@H]1O (stereo partly drawn) [A-320] |
| 7.2 | 0.22 | CC(=O)N[C@H]1[C@H]([C@H](O)[C@H](O)CNC(=O)c2cc(Cl)c(O)c(Cl)c2)O[C@@](CC2OC(C)(C)O[C@H]2c2cccc(C(=O)NCc3ccccc3)c2)(C(=O)O)C[C@@H]1O (stereo partly drawn) [A-321] |
| 3.0 | 7.79 | CC(=O)N[C@H]1[C@H]([C@H](O)[C@H](O)CNC(=O)c2cc(Cl)c(O)c(Cl)c2)O[C@@](CC2OC(C)(C)O[C@@H]2c2cccc(C(=O)NCc3ccccc3)c2)(C(=O)O)C[C@@H]1O (stereo partly drawn) [A-322] |

| DSF (dTmD) [1] [°C] | EC50 [2] [µM] | SMILES |
| --- | --- | --- |
| 4.4 | 10.9 | Cc1cc(C(=O)NC[C@@H](O)[C@@H](O)[C@@H]2O[C@@](OCCOCCNC(=O)OCc3ccccc3)(C(=O)O)C[C@H](O)[C@H]2NC(=O)Cn2cc(C3CCCCC3)nn2)cc(C)c1O [A-323] |
| 3.2 | 3.67 | Cc1cc(C(=O)NC[C@@H](O)[C@@H](O)[C@@H]2O[C@@](OC3CCCCC3NC(=O)CNC(=O)OCc3ccccc3)(C(=O)O)C[C@H](O)[C@H]2NC(=O)Cn2cc(C3CCCCC3)nn2)cc(C)c1O (stereo partly drawn) [A-324] |
| 3.3 | 13.2 | Cc1cc(C(=O)NC[C@@H](O)[C@@H](O)[C@@H]2O[C@@](OC3CCCCC3NC(=O)CN(C)C(=O)OCc3ccccc3)(C(=O)O)C[C@H](O)[C@H]2NC(=O)Cn2cc(C3CCCCC3)nn2)cc(C)c1O (stereo partly drawn) [A-325] |
| 4.0 | 13.6 | Cc1cc(C(=O)NC[C@@H](O)[C@@H](O)[C@@H]2O[C@@](OC3CCCCC3NC(=O)CN(C)C(=O)OCc3cccc(C(=O)NC4CC4)c3)(C(=O)O)C[C@H](O)[C@H]2NC(=O)Cn2cc(C3CCCCC3)nn2)cc(C)c1O (stereo partly drawn) [A-326] |
| 3.2 | 6.61 | CNC(=O)c1cccc(COC(=O)NCC(=O)NC2CCCCC2O[C@]2(C(=O)O)C[C@H](O)[C@@H](NC(=O)Cn3cc(C4CCCCC4)nn3)[C@H]([C@H](O)[C@H](O)CNC(=O)c3cc(C)c(O)c(C)c3)O2)c1 (stereo partly drawn) [A-327] |
| 1.4 | 12.3 | Cc1cc(C(=O)NC[C@@H](O)[C@@H](O)[C@@H]2O[C@@](OC3CCCCC3NC(=O)CNC(=O)CC3CCOCC3)(C(=O)O)C[C@H](O)[C@H]2NC(=O)Cn2cc(C3CCCCC3)nn2)cc(C)c1O (stereo partly drawn) [A-328] |
| 1.4 | 15.2 | Cc1cc(C(=O)NC[C@@H](O)[C@@H](O)[C@@H]2O[C@@](OC3CCCCC3NC(=O)CNC(=O)COC3CCCC3)(C(=O)O)C[C@H](O)[C@H]2NC(=O)Cn2cc(C3CCCCC3)nn2)cc(C)c1O (stereo partly drawn) [A-329] |
| 5.0 | 4.81 | Cc1cc(C(=O)NC[C@@H](O)[C@@H](O)[C@@H]2O[C@@](OC3CCCCC3NC(=O)Cn3cc(CNC(=O)c4cccc(C#N)c4)nn3)(C(=O)O)C[C@H](O)[C@H]2NC(=O)Cn2cc(C3CCCCC3)nn2)cc(C)c1O (stereo partly drawn) [A-330] |
| 4.9 | 4.33 | Cc1cc(C(=O)NC[C@@H](O)[C@@H](O)[C@@H]2O[C@@](OC3CCCCC3NC(=O)Cn3cc(Cn4ncc5ccccc5c4=O)nn3)(C(=O)O)C[C@H](O)[C@H]2NC(=O)Cn2cc(C3CCCCC3)nn2)cc(C)c1O (stereo partly drawn) [A-331] |
| 5.4 | 2.3 | Cc1cc(C(=O)NC[C@@H](O)[C@@H](O)[C@@H]2O[C@@](OC3CCCCC3NC(=O)Cn3cc(CNC(=O)c4ccccn4)nn3)(C(=O)O)C[C@H](O)[C@H]2NC(=O)Cn2cc(C3CCCCC3)nn2)cc(C)c1O (stereo partly drawn) [A-332] |
| 4.5 | 12.2 | Cc1cc(C(=O)NC[C@@H](O)[C@@H](O)[C@@H]2O[C@@](OC3CCCCC3NC(=O)Cn3cc(-c4ccccc4)nn3)(C(=O)O)C[C@H](O)[C@H]2NC(=O)Cn2cc(C3CCCCC3)nn2)cc(C)c1O (stereo partly drawn) [A-333] |
| 2.8 | 7.7 | Cc1cc(C(=O)NC[C@@H](O)[C@@H](O)[C@@H]2O[C@@](OC3CCCCC3NC(=O)Cn3cc(CNC(=O)N4CCOCC4)nn3)(C(=O)O)C[C@H](O)[C@H]2NC(=O)Cn2cc(C3CCCCC3)nn2)cc(C)c1O (stereo partly drawn) [A-334] |
| 6.4 | 0.601 | Cc1cc2cc(C)c1OCCCOC[C@H](NC(=O)C1CCCOC1)COC/C=C/C[C@]1(C(=O)O)C[C@H](O)[C@@H](NC(=O)Cn3cc(C4CCCCC4)nn3)[C@@H](O1)[C@H](O)[C@H](O)CNC2=O (stereo partly drawn) [A-335] |
| 3.6 | 4.19 | CC(=O)N[C@H]1[C@H]2O[C@](C(=O)O)(C/C=C/COC[C@@H](NC(=O)[C@@H]3CCCOC3)COCCCOc3c(C)cc(cc3C)C(=O)NC[C@@H](O)[C@H]2O)C[C@@H]1O [A-336] |
| 2.2 | 14.1 | CC(=O)N[C@H]1[C@H]2O[C@](C(=O)O)(C/C=C/COC[C@@H](NC(=O)[C@H]3CCCOC3)COCCCOc3c(C)cc(cc3C)C(=O)NC[C@@H](O)[C@H]2O)C[C@@H]1O [A-337] |
| 5.6 | 3.82 | Cc1cc2cc(C)c1OCCOC[C@@H](NC(=O)C1CCCOC1)COC/C=C/C[C@]1(C(=O)O)C[C@H](O)[C@@H](NC(=O)Cn3cc(C4CCCCC4)nn3)[C@@H](O1)[C@H](O)[C@H](O)CNC2=O (stereo partly drawn) [A-338] |
| 4.4 | 5.91 | CC(=O)N[C@H]1[C@H]2O[C@](C(=O)O)(C/C=C/COC[C@H](NC(=O)C3CCCOC3)COCCOc3c(C)cc(cc3C)C(=O)NC[C@@H](O)[C@H]2O)C[C@@H]1O (stereo partly drawn) [A-339] |
| 4.22 | 3.5 | Cc1cc2cc(C)c1OCCOC[C@@H](NC(=O)C1CCCOC1)COCCCC[C@]1(C(=O)O)C[C@H](O)[C@@H](NC(=O)Cn3cc(C4CCCCC4)nn3)[C@@H](O1)[C@H](O)[C@H](O)CNC2=O (stereo partly drawn) [A-340] |
